Results on ten molecules are retold here after patent US11034718B2, “C-3 novel triterpenone with C-17 reverse amide derivatives as HIV inhibitors” (HETERO LABS LIMITED, priority 2015, dated 2021).

Each structure is given as a SMILES string. pIC50: −log10 of the molar value. Where two headings read alike, the source gives them in different places.

In general, pIC50 refers to the IC50 on a negative log10 scale, so that one unit is a factor of ten.

Type in all cases: cell-based
The test system of one test is HIV-1 strain 92HT599. Description: Antiviral activity against HIV-1 strain 92HT599 in MT2 cells (p24 estimation). The note with it: HIV-1 92HT599, ~96 hours. The procedure, abridged: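 Percent inhibition versus vehicle controls came from p24 quantified in supernatant aliquots. These were taken after ~96 h incubation of compound (DMSO ≤1%) with MT2 cells infected at 10 TCID50/30,000 cells.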

The subject of a further test is HIV-1 pNL4-3 WT. The experiment in a line: Antiviral activity against pNL4-3/WT strain in MT4 cells (p24 estimation). The conditions noted are these: Human immunodeficiency virus 1, MT4, 96 h, read-out: pNL4-3 WT IC50. Here is the method: (§1) Example 78: Evaluation of Compounds Antiviral Activity Against pNL4-3/WT & V7A Strains in MT4 Cells
(§2) MT4 cells were Transfected with HIV-1 Plasmid (pNL4-3-WT & V7A) (Cells were incubating with required number of TCID50 of HIV-1 for 1.5 h at 37° C.). After infection, the infected cells were plated at the concentration of 3×10^4 cells per well in 96 well plate. Test compound was added to the test plate in defined format with the final concentration of DMSO is not more than 1%. Incubation was carried out in CO2 incubator for 4 days for viral infection. At the end of incubation period an aliquot from each well was taken for p24 estimation. p24 estimation was carried out using Advance biosciences kit as per the procedure detailed by supplier.

The test system of another test is HIV-1 pNL4-3 V7A. Description: Antiviral activity against pNL4-3/V7A strain in MT4 cells (p24 estimation). The note with it: Human immunodeficiency virus 1, MT4, 96 h, read-out: pNL4-3 V7A IC50. How it is done:
as §1, §2

The mark [1] stands for this setting: Human immunodeficiency virus 1, 0% serum binding assay, read-out: IC50 0% serum.
The mark [2] stands for this setting: Human immunodeficiency virus 1, 40% serum binding assay, read-out: IC50 40% serum.

For the molecule `CC(C)C1=C2[C@H]3CC[C@@H]4[C@@]5(C)CC[C@H](OC(=O)[C@H]6C[C@@H](C(=O)O)C6(C)C)C(C)(C)[C@@H]5CC[C@@]4(C)[C@]3(C)CC[C@@]2(NC(=O)C(C)(C)NC(=O)c2ccc(N3CCOCC3)cc2)CC1=O` [Example 18, (1R,3S)-3-((((3aR,5aR,5bR,7aR,9S,11aR,11bR,13aS)-1-isopropyl-5a,5b,8,8,11a-pentamethyl-3a-(2-methyl-2-(4-morpholinobenzamido)propanamido)-2-oxo-3,3a,4,5,5a,5b,6,7,7a,8,9,10,11,11a,11b,12,13,13a-octadecahydro-2H-cyclopenta[a]chrysen-9-yl)oxy)carbonyl)-2,2-dimethylcyclobutane-1-carboxylic acid], the pIC50 is over 8.52 with HIV-1 strain 92HT599 (setting [1]), over 7.30 in the test on HIV-1 strain 92HT599 (setting [2]), over 8.30 with HIV-1 pNL4-3 WT and over 8.00 in the test with HIV-1 pNL4-3 V7A.
For `CC(C)C1=C2[C@H]3CC[C@@H]4[C@@]5(C)CC[C@H](OC(=O)[C@H]6C[C@@H](C(=O)O)C6(C)C)C(C)(C)[C@@H]5CC[C@@]4(C)[C@]3(C)CC[C@@]2(NC(=O)C(C)(C)NC(=O)CN2CCS(=O)(=O)CC2)CC1=O` [Example 34, (1R,3S)-3-((((3aR,5aR,5bR,7aR,9S,11aR,11bR,13aS)-3a-(2-(2-(1,1-dioxidothiomorpholino)acetamido)-2-methylpropanamido)-1-isopropyl-5a,5b,8,8,11a-pentamethyl-2-oxo-3,3a,4,5,5a,5b,6,7,7a,8,9,10,11,11a,11b,12,13,13a-octadecahydro-2H-cyclopenta[a]chrysen-9-yl)oxy)carbonyl)-2,2-dimethylcyclobutane-1-carboxylic acid], in that order: over 8.52, over 7.30, over 8.30 and 7.30 to 8.00.
Consider `CC(C)C1=C2[C@H]3CC[C@@H]4[C@@]5(C)CC[C@H](OC(=O)[C@H]6C[C@@H](C(=O)O)C6(C)C)C(C)(C)[C@@H]5CC[C@@]4(C)[C@]3(C)CC[C@@]2(NC(=O)C2(NC(=O)c3ccc(Cl)cc3)CCC2)CC1=O` [Example 42, (1R,3S)-3-((((3aR,5aR,5bR,7aR,9S,11aR,11bR,13aS)-3a-(1-(4-chlorobenzamido)cyclobutane-1-carboxamido)-1-isopropyl-5a,5b,8,8,11a-pentamethyl-2-oxo-3,3a,4,5,5a,5b,6,7,7a,8,9,10,11,11a,11b,12,13,13a-octadecahydro-2H-cyclopenta[a]chrysen-9-yl)oxy)carbonyl)-2,2-dimethylcyclobutane-1-carboxylic acid], for which the pIC50 in the test on HIV-1 strain 92HT599 (setting [1]) is over 8.52; with HIV-1 strain 92HT599 (setting [2]), over 7.30; in the test on HIV-1 pNL4-3 WT it was 8.00 to 8.30; in the test on HIV-1 pNL4-3 V7A, over 8.00.
The like results for `Cc1nnc(-c2ccc(C(=O)NC(C)(C)C(=O)N[C@@]34CC[C@]5(C)[C@H](CC[C@@H]6[C@@]7(C)CC[C@H](OC(=O)[C@H]8C[C@@H](C(=O)O)C8(C)C)C(C)(C)[C@@H]7CC[C@]65C)C3=C(C(C)C)C(=O)C4)cc2)o1` [Example 56, (1R,3S)-3-((((3aR,5aR,5bR,7aR,9S,11aR,11bR,13aS)-1-isopropyl-5a,5b,8,8,11a-pentamethyl-3a-(2-methyl-2-(4-(5-methyl-1,3,4-oxadiazol-2-yl)benzamido)propanamido)-2-oxo-3,3a,4,5,5a,5b,6,7,7a,8,9,10,11,11a,11b,12,13,13a-octadecahydro-2H-cyclopenta[a]chrysen-9-yl)oxy)carbonyl)-2,2-dimethylcyclobutane-1-carboxylic acid] were, in that order, over 8.52, over 7.30, 8.00 to 8.30 and 7.30 to 8.00.
On to `CC(C)C1=C2[C@H]3CC[C@@H]4[C@@]5(C)CC[C@H](OC(=O)[C@H]6C[C@@H](C(=O)O)C6(C)C)C(C)(C)[C@@H]5CC[C@@]4(C)[C@]3(C)CC[C@@]2(NC(=O)C(C)(C)NC(=O)c2ccc(N3CCS(=O)(=O)CC3)cc2)CC1=O` [Example 57, (1R,3S)-3-((((3aR,5aR,5bR,7aR,9S,11aR,11bR,13aS)-3a-(2-(4-(1,1-dioxidothiomorpholino)benzamido)-2-methylpropanamido)-1-isopropyl-5a,5b,8,8,11a-pentamethyl-2-oxo-3,3a,4,5,5a,5b,6,7,7a,8,9,10,11,11a,11b,12,13,13a-octadecahydro-2H-cyclopenta[a]chrysen-9-yl)oxy)carbonyl)-2,2-dimethylcyclobutane-1-carboxylic acid], for which the pIC50 is over 8.52 in the test on HIV-1 strain 92HT599 (setting [1]), over 7.30 with HIV-1 strain 92HT599 (setting [2]), 8.00 to 8.30 with HIV-1 pNL4-3 WT and 7.30 to 8.00 in the test with HIV-1 pNL4-3 V7A.
For `Cc1cc(C(=O)NC(C)(C)C(=O)N[C@@]23CC[C@]4(C)[C@H](CC[C@@H]5[C@@]6(C)CC[C@H](OC(=O)[C@H]7C[C@@H](C(=O)O)C7(C)C)C(C)(C)[C@@H]6CC[C@]54C)C2=C(C(C)C)C(=O)C3)c(C)o1` [Example 33, (1R,3S)-3-((((3aR,5aR,5bR,7aR,9S,11aR,11bR,13aS)-3a-(2-(2,5-dimethylfuran-3-carboxamido)-2-methylpropanamido)-1-isopropyl-5a,5b,8,8,11a-pentamethyl-2-oxo-3,3a,4,5,5a,5b,6,7,7a,8,9,10,11,11a,11b,12,13,13a-octadecahydro-2H-cyclopenta[a]chrysen-9-yl)oxy)carbonyl)-2,2-dimethylcyclobutane-1-carboxylic acid], in that order: over 8.52, over 7.30, over 8.30 and over 8.00.
Take `Cc1noc(C)c1C(=O)NC(C)(C)C(=O)N[C@@]12CC[C@]3(C)[C@H](CC[C@@H]4[C@@]5(C)CC[C@H](OC(=O)[C@H]6C[C@@H](C(=O)O)C6(C)C)C(C)(C)[C@@H]5CC[C@]43C)C1=C(C(C)C)C(=O)C2` [Example 19, (1R,3S)-3-((((3aR,5aR,5bR,7aR,9S,11aR,11bR,13aS)-3a-(2-(3,5-dimethylisoxazole-4-carboxamido)-2-methylpropanamido)-1-isopropyl-5a,5b,8,8,11a-pentamethyl-2-oxo-3,3a,4,5,5a,5b,6,7,7a,8,9,10,11,11a,11b,12,13,13a-octadecahydro-2H-cyclopenta[a]chrysen-9-yl)oxy)carbonyl)-2,2-dimethylcyclobutane-1-carboxylic acid]: the pIC50 was over 8.52 in the test with HIV-1 strain 92HT599 (setting [1]), over 7.30 in the test with HIV-1 strain 92HT599 (setting [2]), over 8.30 with HIV-1 pNL4-3 WT and over 8.00 with HIV-1 pNL4-3 V7A.
In the case of `CC(C)C1=C2[C@H]3CC[C@@H]4[C@@]5(C)CC[C@H](OC(=O)[C@H]6C[C@@H](C(=O)O)C6(C)C)C(C)(C)[C@@H]5CC[C@@]4(C)[C@]3(C)CC[C@@]2(NC(=O)C2(NC(=O)c3ncccn3)CCC2)CC1=O` [Example 44, (1R,3S)-3-((((3aR,5aR,5bR,7aR,9S,11aR,11bR,13aS)-1-isopropyl-5a,5b,8,8,11a-pentamethyl-2-oxo-3a-(1-(pyrimidine-2-carboxamido)cyclobutane-1-carboxamido)-3,3a,4,5,5a,5b,6,7,7a,8,9,10,11,11a,11b,12,13,13a-octadecahydro-2H-cyclopenta[a]chrysen-9-yl)oxy)carbonyl)-2,2-dimethylcyclobutane-1-carboxylic acid], the pIC50 in the test on HIV-1 strain 92HT599 (setting [1]) was over 8.52; in the test on HIV-1 strain 92HT599 (setting [2]), 6.70 to 7.30; in the test with HIV-1 pNL4-3 WT it was under 8.00; with HIV-1 pNL4-3 V7A it was under 7.30.
For `CC(C)C1=C2[C@H]3CC[C@@H]4[C@@]5(C)CC[C@H](OC(=O)[C@H]6C[C@@H](C(=O)O)C6(C)C)C(C)(C)[C@@H]5CC[C@@]4(C)[C@]3(C)CC[C@@]2(NC(=O)C(C)(C)NC(=O)c2cccnc2N2CCOCC2)CC1=O` [Example 31, (1R,3S)-3-((((3aR,5aR,5bR,7aR,9S,11aR,11bR,13aS)-1-isopropyl-5a,5b,8,8,11a-pentamethyl-3a-(2-methyl-2-(2-morpholinonicotinamido)propan amido)-2-oxo-3,3a,4,5,5a,5b,6,7,7a,8,9,10,11,11a,11b,12,13,13a-octadecahydro-2H-cyclopenta[a]chrysen-9-yl)oxy)carbonyl)-2,2-dimethylcyclobutane-1-carboxylic acid], the pIC50 in the test on HIV-1 strain 92HT599 (setting [1]) was over 8.52; in the test with HIV-1 strain 92HT599 (setting [2]) it was over 7.30; in the test with HIV-1 pNL4-3 WT, over 8.30; with HIV-1 pNL4-3 V7A, under 7.30.
For `CC(C)C1=C2[C@H]3CC[C@@H]4[C@@]5(C)CC[C@H](OC(=O)[C@@H]6C[C@H](C(=O)O)C6(C)C)C(C)(C)[C@@H]5CC[C@@]4(C)[C@]3(C)CC[C@@]2(NC(=O)C2(NC(=O)c3ccc(Cl)cc3)CC2)CC1=O` [Example 41, (1S,3R)-3-((((3aR,5aR,5bR,7aR,9S,11aR,11bR,13aS)-3a-(1-(4-chlorobenzamido)cyclopropane-1-carboxamido)-1-isopropyl-5a,5b,8,8,11a-pentamethyl-2-oxo-3,3a,4,5,5a,5b,6,7,7a,8,9,10,11,11a,11b,12,13,13a-octadecahydro-2H-cyclopenta[a]chrysen-9-yl)oxy)carbonyl)-2,2-dimethylcyclobutane-1-carboxylic acid], in that order: over 8.52, over 7.30, under 8.00 and 7.30 to 8.00.
